For one test, the system named is HEL 92.1.7 cells. As to the kind of experiment: Cell proliferation assay (CCK8). The class given is cell-based. As to conditions: HEL 92.1.7, 48 h. The method, then: (§1) This example describes inhibition of in vitro cell proliferation with exemplary HDAC11 inhibitors. The effects of selective HDAC11 inhibitors on cell proliferation were measured in cell lines containing the MPN-associated mutations MPL W515L (Ba/F3 MPL W515L) and JAK2 V617F (Ba/F3 JAK2 V617F, HEL 92.1.7, SET-2). HEL 92.1.7 and SET-2 cells were purchased from the ATCC and DSMZ, respectively. Ba/F3 cells overexpressing either MPLW515L or JAK2V617F, which were cytokine independent, were generated by transforming Ba/F3 cells with retroviruses overexpressing either MPL W515L or JAK2V617F. For survival assays, cells were seeded in 96-well plates at the density of 0.1 million/ml with addition of indicated compounds and incubated at 37° C. for 48 h. CCK8 solution (Dojindo, Rockville, Md.) was added and absorbance at 450 nm was measured after 3 hours of incubation. Readings were normalized to dimethylsulfoxide (DMSO)-treated wells.

In a further test the test system is SET-2 cells. Put plainly: Cell proliferation assay (CCK8). The test is classed as cell-based. The note with it: SET-2 (FIG. 4 legend). The method, then: as §1

Each structure is given as a SMILES string.

Turning to `N#CC[C@H](C1CCCC1)n1cc(-c2ncnc3[nH]ccc23)cn1` [ruxolitinib, reference compound], the “growth of the HEL 92.1.7 cell line” value in the test with HEL 92.1.7 cells is recorded as “inhibited”. Also, in the test with SET-2 cells, the “growth of SET-2 cell line” value is reported as “inhibited”.
